US7183383B2, “Uses of collagen IV” (The University of Arkansas for Medical Sciences, priority 2002, dated 2007)

Experiments:
Assay type in all cases: cell-based, rabbit
[1] = tested on: renal proximal tubular cells; assay: Active Na^+ transport (ouabain-sensitive QO2); details: for decrease in active Na^+ transport: day 1 after DCVC injury, in presence of the agent; for active Na+ transport in uninjured RPTC: days 1 or 6
Protocol: Confluent monolayers of renal proximal tubular cells (day 6 after seeding) were exposed to 200 μM S-(1,2-dichlorovinyl)-L-cysteine (dissolved in water) for 1.75 hours followed by toxicant removal and addition of fresh culture media. This method produces approximately 50% cell death and loss 24 hours after the exposure. In some experiments, exogenous collagen IV (50 μg/ml), collagen I (50 μg/ml), or function-stimulating antibodies to collagen-binding integrin subunits α2 or β1 (5 μg/ml) was added daily to the culture media of S-(1,2-dichlorovinyl)-L-cysteine-injured renal proximal tubular cells cultured in the absence of pharmacological concentrations of L-ascorbic acid-2-phosphate. Function-stimulating antibodies to collagen-binding integrin α1 are not commercially available at this time. On days 1 and 6 following S-(1,2-dichlorovinyl)-L-cysteine exposure, active Na^+ transport or Na^+/K^+-ATPase activity, and collagen-binding integrin expression and/or localization in the remaining sublethally injured renal proximal tubular cells was determined as described below.
Renal proximal tubular cells were gently detached from culture dishes with a rubber policeman and transferred to a 37° C. oxygen consumption (QO2) chamber. QO2 in renal proximal tubular cells was measured polarographically in the absence (basal QO2) or presence of ouabain (100 μM) (ouabain-insensitive QO2) using a Clark-type electrode as described previously (Nowak and Schnellmann, 1995). Active Na^+ transport (ouabain-sensitive QO2) was calculated by subtracting ouabain-insensitive QO2 from basal QO2. Protein concentrations were determined using the bicinchoninic acid microassay according to the manufacturer's instructions (Pierce, Rockford, Ill.).

[2] = tested on: collagen-binding integrin subunits α1, α2, and β1; assay: Expression of collagen-binding integrins by flow cytometry; details: for expression of CBI subunits α1, α2, or β1 in sublethally injured RPTC: DCVC-injured RPTC; for expression of CBI subunits α1, α2, or β1 in sublethally injured RPTC / collagen-binding integrin α1, α2, and β1 expression in uninjured RPTC: AscP 500 μM or collagen IV 50 μg/ml
Protocol: CBI expression was measured by flow cytometry of renal proximal tubular cells immunostained with monoclonal antibodies to integrin subunits α1, α2, and β1. Renal proximal tubular cell monolayers were washed 3 times with ice-cold PBS, gently scraped from culture dishes into cell culture media containing 5% BSA (BSA/media), and transferred to microcentrifuge tubes. Renal proximal tubular cells were dissociated by pipeting, incubated on ice with moderate shaking for 20 minutes, centrifuged, and resuspended in 1% BSA/media containing 2 μg/ml of a specific anti-integrin antibody or non-specific IgG on ice with moderate shaking for 1 hour. After 3 washes with 1% BSA/media, renal proximal tubular cells were incubated for 30 minutes in the dark with a goat-anti mouse FITC-conjugated IgG diluted 1:100 in 1% BSA/media, followed by 3 washes with ice-cold PBS. Membrane expression of collagen-binding integrins was determined immediately by flow cytometry using a FACSCalibur four-color cell sorter/analyzer (Beckton Dickinson, San Jose, Calif.) with a blue argon laser for detection of FITC. Specific binding was calculated as total fluorescence minus that in IgG controls.

[3] = tested on: collagen IV synthesis in renal proximal tubular cells; assay: Newly synthesized collagen IV (immunoprecipitation, autoradiography, densitometry)
Protocol: Immunoprecipitation of newly synthesized and deposited collagen IV was performed using the method of Niki et al., with some modifications (34). On days 1, 4, and 6 after sublethal S-(1,2-dichlorovinyl)-L-cysteine injury, renal proximal tubular cells were metabolically labeled for 24 hours with 25 μCi/ml of [^35S]-L-methionine. Cell monolayers were washed with PBS, solubilized for 30 minutes in lysis buffer (20 mM Tris-HCl (pH 8.8), 2 mM EDTA, 0.2 mM PMSF, 10 mM N-ethylmaleimide, 1% Triton X-100, 1% sodium deoxycholic acid, 150 mM NaCl, and 1 mM EGTA) containing protease inhibitors (25 μg/ml pepstatin A, 12.5 μg/ml leupeptin, 12.5 μg/ml aprotinin), and centrifuged at 15,000×g for 10 minutes at 4° C. The resulting supernatants (soluble fraction, cell-associated collagen) were transferred to fresh tubes, snap frozen in liquid N2, and stored at −80° C. […] Protein concentration in cell-associated and ECM-associated fractions was determined using a Coomassie protein microassay (Pierce, Rockford, Ill.) with BSA as the standard. […]
Radiolabeled collagen IV was separated by SDS-PAGE and visualized by autoradiography (22). […] After film development, densitometry of the resulting 206 kDa bands was calculated using NIH Image software.

[4] = day 6, AscP 500 μM or collagen IV 50 μg/ml

Molecule	decrease in active Na^+ transport [1]	active Na^+ transport in DCVC-injured RPTC [1, 4]	active Na+ transport in uninjured RPTC [1]	expression of CBI subunits α1, α2, or β1 in sublethally injured RPTC [2]	collagen-binding integrin α1, α2, and β1 expression in uninjured RPTC [2]	collagen IV synthesis, 500 μM compared to 50 μM AscP ([3]; day 1, uninjured RPTC)	active Na^+ transport ([1]; day 1 following DCVC injury)	active Na^+ transport ([1]; day 6 after DCVC injury)	expression of CBI subunits α1, α2, and β1 compared to controls ([2]; day 1 after DCVC)	expression of CBI subunits α1 and β1 compared to controls ([2]; day 6 after DCVC)	increase in collagen IV synthesis ([3]; one day after DCVC, both 50 μM and 500 μM AscP) [fold]	active Na^+ transport in DCVC-injured RPTC ([1]; day 6 after injury, 5, 15, 50 μg/ml)
O=C1O[C@H]([C@@H](O)CO)C(O)=C1OP(=O)(O)O [L-ascorbic acid-2-phosphate, L-Ascorbic acid-2-phosphate]	approximately 80%	increase in active Na^+ transport	no effect	did not affect	did not affect	decreased						
N[C@@H](CSC(Cl)=CCl)C(=O)O [S-(1,2-dichlorovinyl)-L-cysteine]							marked inhibition	marked inhibition	unchanged	unchanged	1.8	
collagen IV: Human placenta collagen IV (Sigma); triple helical, containing only α1 and α2 chains	approximately 80%	increase in active Na^+ transport	no effect	did not affect	did not affect							concentration-dependent improvement
